Data set [1] can be described thus: Dissolution in DMSO (stock solution). Type of data set: physicochemical. As to the method: The way in which the formulations were prepared involved preparing a stock solution of the compound in DMSO, and then performing dilutions from this stock such that the requisite final concentration was obtained after the addition of all the necessary formulation components. Practically speaking, this was accomplished by partitioning a portion of each compound into separate 4 mL vials, and then placing these vials on the lyophilizer to ensure the compounds were completely dry. This led to a vial containing 49.5 mg of the 3′ OZ439 regioisomer, while the other held 51.0 mg of OZ439. […] This entailed adding 309.4 μL of DMSO to the vial with the 3′ OZ439 regioisomer, whereas 318.8 μL of DMSO was added to the vial containing actual OZ439. In the past, an issue has not arisen when doing this. However, this time, a major problem presented itself. The problem was not with the newly developed 3′ regioisomer of OZ439, but with OZ439 itself. After addition of DMSO to the vials, the majority of the 3′ regioisomer dissolved, whereas none of the actual OZ439 did. In an attempt to assist with dissolving the material, the two vials were then placed a water bath set to 42° C. […] The vial was then placed in a bath sonicator for 60 minutes, ultimately to no avail as […] dissolution of the material. […] At this point, the vial was then placed on the Hi-Vac to remove the DMSO. Once dry, the material was partitioned again in an attempt to get the material to dissolve at a lower concentration.
For the second attempt at preparing the necessary formulation for the actual OZ439, the material was partitioned such that when the dilutions were performed, the highest concentration that would be prepared from the stock solution would be the 10 mg/kg doses. As such, the 80, 40, and 30 mg/kg doses were all prepared directly by partitioning the requisite amounts into separate vials and then adding the necessary amounts of the formulation to reach the desired concentration. For the vial that was employed in aliquoting from to prepare the other concentrations, it contained 15.5 mg of OZ439. DMSO (775 μL) was then added to this vial, to yield a final concentration of 20 mg/mL (55 mM). […] Only after allowing the vial to warm in a 55° C. water bath for 30 minutes did the material finally dissolve. At this point, the material was brought back to the bench to aliquot the material en route to preparing the remaining doses. However, upon being removed from the bath, the compound began to crash out as it cooled to room temperature. For this reason, the vial was heated with a heat gun for about 10-15 seconds to get the material to dissolve fully once again. […]

The nature of data set [2]: Dissolution in oral gavage formulation. In kind it is physicochemical. The conditions noted are these: 10% DMSO, 40% of a 20% solution of 2-hydroxypropyl-cyclodextrin in water, 50% PEG400; 80, 40 and 30 mg/kg doses; sonication. As to the method: As such, we chose to screen the two regioisomers in a head-to-head study against P. berghei infected mice. In order to carry out this experiment, both compounds first needed to be formulated in a manner that would allow for treatment of the mice by oral gavage. […] Returning to the 3′ regioisomer, the actual doses were then successfully prepared according to the following instructions. The necessary amount of DMSO solution was removed from the vial and added to a new vial. For the 80 mg/kg dose, no additional DMSO was needed to be added to the vial. […] Upon adding the aqueous portion to the 80, 40, and 30 mg/kg doses, a white solution formed (resembled more of an emulsion then a heterogeneous solution). The vials were then placed in a bath sonicator in an attempt to redissolve the material. […] However, even after storing the material at −20° C., the compound was not observed to crash out of the formulation again. For the second attempt at preparing the necessary formulation for the actual OZ439, the material was partitioned such that when the dilutions were performed, the highest concentration that would be prepared from the stock solution would be the 10 mg/kg doses. As such, the 80, 40, and 30 mg/kg doses were all prepared directly by partitioning the requisite amounts into separate vials and then adding the necessary amounts of the formulation to reach the desired concentration. […]

For data set [3], the system named is Plasmodium falciparum: strain W2. Nature of the data set: Plasmodium falciparum growth inhibition assay (EC50 determinations). The settings on record: Plasmodium falciparum, W2; against P. falciparum, in vitro; read-out: potency against P. falciparum. In kind it is cell-based.
Experimental: The growth inhibition assay for P. falciparum was conducted as described previously^29 with minor modifications. […] Following 48 hours of incubation, the cells were fixed by adding 0.1 ml of 2% formaldehyde in phosphate buffered saline, pH=7.4 (PBS). […] Parasitemias were determined from dot plots (forward scatter vs. fluorescence) using [sequence] software (Becton Dickinson). EC50 values for growth inhibition were determined from plots of percentage control parasitemia over inhibitor concentration using GraphPad Prism software.
The conditions of data set [4]: cited from earlier work.
The next data set concerns Plasmodium berghei. The data set is described as follows: Plasmodium berghei mouse malaria model (Peters test, cures at 30 days). Type of data set: in vivo. The conditions noted are these: po, 720 h, oral gavage, read-out: Mice Cured (%). From the text:
The suppressive 4-day “Peters test” ^27 involving P. berghei infected mice provides a convenient and cost effective means to assess the overall in vivo performance of pre-clinical antimalarials. […] Mice were followed for 30 days and judged to have been cured of the infection based on the lack of detectable parasitemia at the end of the study.
Female Swiss Webster Mice (average of 20 g body weight) were infected intraperitoneally with 10^6 Plasmodium berghei-infected erythrocytes collected from a previously infected mouse. […] There were five mice in each test arm. Infections were monitored by daily microscopic evaluation of Giemsa-stained blood smears starting on day seven. Parasitemia were determined by counting the number of infected and uninfected erythrocytes. Body weight was measured over the course of the treatment. […] Animal survival and morbidity were closely monitored for up to 30 days post-infection when the experiment was terminated. In some cases survival is expressed as a PD100 or PD50, the dose that produces respectively 100% or 50% cures in treated animals at 30 days post infection.

Data set [5] can be described thus: Kinetic solubility in PBS. In kind it is physicochemical. The settings on record: kinetic solubility in PBS (pH = 7.4), final DMSO 5%, average of three determinations.
Data set [6] concerns K13 revertant strain bearing the wild type K13 allele. The conditions noted are these: pulsed exposure; cited from earlier work.
For data set [7], the system named is clinical K13-mutant strain. The settings on record: pulsed exposure; cited from earlier work.
Data set [8] can be described thus: Mouse liver microsome assay (half-life, intrinsic clearance). The text has this:
A second hypothesis regarding trans-R^A substitution (R^A in Scheme 1) was that the resulting de-symmetrized molecular topology would impact the vivo PK/PD properties of these analogs. […] To explore possible metabolic differences, we evaluated selected analogs with mouse liver microsomes and derived intrinsic clearance (CLint) values (Table 1).

The next data set concerns PC-3 xenograft. The data set is described as follows: PET imaging of PC-3 xenograft mouse. In kind it is in vivo. The conditions noted are these: tail vein injection. The text has this:
Compounds 1 and specific examples B9[^18F] and B20[^18F] above are PET imaging reagent with applications in cancer, infectious disease, and inflammation. […] Additional, more quantitative, biodistribution data (e.g., biodistribution data for probes B9 and B20) is included in FIGS. 5-8. […] The imaging reagents above provides a new paradigm for imaging diverse cancer types based on metabolic changes in iron metabolism in tumors and other aspects of tumor biology (hypoxia, necrosis, macrophage infiltration). Imaging primary tumors and metastases and other therapeutic conditions involving aberrant production of labile Fe(II) such as inflammation and infection.

Where [9] appears, read: 160 mg/mL (341 mM) in DMSO, water bath 42° C., then 55° C. and sonication for OZ439.

Molecules are shown by their SMILES. Values after ≈ are worked out from the molar mass of the structure shown. Read-outs that look alike come from different tables or passages of the source.

In the case of `c1cc([C@@H]2CCC[C@]3(C2)OOC2(O3)C3CC4CC(C3)CC2C4)ccc1OCCN1CCOCC1` (stereo in doubt) [A5, 4-(2-(4-(dispiro[adamantane-2,3′-[1,2,4]trioxolane-5′,1″-cyclohexan]-3″-yl)phenoxy)ethyl)morpholine], the “dissolution in DMSO” value in data set [1] (setting [9]) is on record as “dissolved much more rapidly in DMSO than did OZ439”; in data set [1] (160 mg/mL (341 mM) in DMSO, water bath 42° C., then 55° C. and sonication for OZ439, listed as 3′ regioisomer of OZ439), “completely dissolved”. Further, in [2], the dissolution in formulation result was “completely dissolved”. Further, the EC50 in data set [3] was 19.5 ± 1.6 nM.
The term half-life denotes how long it takes for the measured level to halve. Usually Solubility stands for the dissolved amount per volume that the medium holds. For the compound `CC(C)(N)CNC(=O)C[C@H]1CC[C@]2(CC1)OO[C@]1(O2)C2CC3CC(C2)CC1C3` [2a, arterolane, reference compound], in [4] (human, in vivo), the half-life was 2 to 3 h. The responders at 13.6 mg/kg/day in the data set on Plasmodium berghei (Table 2, tosylate salt, 13.6 mg/kg/day, once a day for four days, no parasitemia at 30 days) was 100%. Besides, in the data set with Plasmodium berghei (Table 3, free base, 1 mg/kg/day, four daily doses), the responders at 1 mg/kg/day came to 0%. For the same compound, the responders at 4 mg/kg/day was 80% in the data set on Plasmodium berghei (Table 3, free base, 4 mg/kg/day, four daily doses) and 20% in the data set on Plasmodium berghei (Table 4, 4 mg/kg/day, once a day for four days). The responders at 6 mg/kg/day stood at 100% with Plasmodium berghei (Table 3, free base, 6 mg/kg/day, four daily doses) and 80% with Plasmodium berghei (Table 4, 6 mg/kg/day, once a day for four days). The responders at 10 mg/kg/day in the data set on Plasmodium berghei (Table 3, free base, 10 mg/kg/day, four daily doses) was found to be 100%. In addition, the “Solubility” value in data set [5] worked out at 433 µM (≈ 170 µg/mL). The “time to reduce early ring viability by 50% (t50)” value was around 1 h in [6] and around 3 h in data set [7]. Also, the “T1/2” value in data set [8] (half-life when incubated with mouse liver microsomes) was 128 min. Moreover, the “T1/2 (min) No NADPH” value in [8] (mouse liver microsomes, no NADPH) is listed as “stable”. Besides, the CLint in data set [8] (mouse, microsomes) is 5.4 μL/min/mg of protein.
Turning to `c1cc([C@H]2CC[C@]3(CC2)OO[C@]2(O3)C3CC4CC(C3)CC2C4)ccc1OCCN1CCOCC1` [3Z, artefenomel], the results for the “time to reduce early ring viability by 50% (t50)” value in [6] and in data set [7] were around 2 h and around 5 h, respectively.
With `O=C(NCCCNC(=O)C12CC3CC(C1)[C@]1(OO[C@]4(CC[C@@H](c5ccc(OCCN6CCOCC6)cc5)CC4)O1)C(C3)C2)c1ccc(F)cc1` [B9, N-(3-(4-fluorobenzamido)propyl)-4″-(4-(2-morpholinoethoxy)phenyl)dispiro[adamantane-2,3′-[1,2,4]trioxolane-5′,1″-cyclohexane]-5-carboxamide], in the data set with PC-3 xenograft, the PET distribution entry was “accumulation in the small intestine”.
For the compound `C[C@H]1[C@@H](O)O[C@@H]2O[C@@]3(C)CC[C@H]4[C@H](C)CC[C@@H]1[C@@]24OO3` [DHA, dihydroartemisinin], in [4] (clinical setting), the half-life is on record as around 1 h.
For the compound `c1cc([C@H]2CC[C@]3(CC2)OO[C@]2(O3)C3CC4CC(C3)CC2C4)ccc1OCCN1CCOCC1` [OZ439, artefenomel, reference compound], the “dissolution in DMSO” value in data set [1] (20 mg/mL (55 mM) in DMSO) is “did not readily dissolve”; in data set [1] (setting [9]), “did not dissolve”. The dissolution in formulation result in [2] was “unsuccessful in getting the material to dissolve”. Besides, in [3], the EC50 is 7.9 ± 0.2 nM.

(Values after patent US12139470B2, “Trioxolane agents” (The Regents of the University of California, priority 2017, dated 2024).)
